ChEMBL document CHEMBL1212791 (Antimicrob Agents Chemother, 2010)

Legend:
Assay type in all cases: ADME, organism-based
[1] = Volume of distribution at steady state with respect to bioavailability in liver transplant patient with end-stage liver disease at 200 mg/kg, po bid; conditions: human, in vivo, read-out: Vc/F
[2] = Terminal disposition rate in liver transplant patient with end-stage liver disease at 200 mg/kg, po bid; design: dose 200 mg/kg, route oral; conditions: human, in vivo, read-out: Activity (converted)
[3] = Cmax in liver transplant patient with end-stage liver disease at 200 mg/kg, po bid; design: dose 200 mg/kg, route oral; conditions: human, in vivo
[4] = system: Homo sapiens; assay: Plasma concentration in liver transplant patient with end-stage liver disease at 200 mg/kg, po bid; design: dose 200 mg/kg, route oral; conditions: in vivo
[5] = Terminal half life in liver transplant patient with end-stage liver disease at 200 mg/kg, po bid; design: dose 200 mg/kg, route oral; conditions: human, in vivo, read-out: beta t1/2 (converted)
[6] = Tmax in liver transplant patient with end-stage liver disease at 200 mg/kg, po bid; design: dose 200 mg/kg, route oral; conditions: human, in vivo
[7] = system: Homo sapiens; assay: Clast in liver transplant patient with end-stage liver disease at 200 mg/kg, po bid; design: dose 200 mg/kg, route oral; conditions: in vivo
[8] = system: Homo sapiens; assay: AUMC (0 to infinity) in liver transplant patient with end-stage liver disease at 200 mg/kg, po bid; design: dose 200 mg/kg, route oral; conditions: in vivo
[9] = Mean residence time in liver transplant patient with end-stage liver disease at 200 mg/kg, po bid; design: dose 200 mg/kg, route oral; conditions: human, in vivo
[10] = AUC (0 to infinity) in liver transplant patient with end-stage liver disease at 200 mg/kg, po bid; design: time infinity, dose 200 mg/kg, route oral; conditions: human, in vivo

Structure (SMILES): C[C@@H](c1ncncc1F)[C@](O)(Cn1cncn1)c1ccc(F)cc1F [VORICONAZOLE]
- Vd/F [1]: 94.5 L
- k el [2]: 1.67e-05 s⁻¹
- Cmax [3]: 2900 ng/mL
- Cp [4]: 1000 ng/mL
- half-life [5]: 15 h
- Tmax [6]: 1.8 h
- Clast [7]: 1600 ng/mL
- AUMC [8]: 2557.5 hr.hr.ug/ml
- MRT [9]: 78.2 h
- AUC(0-inf) [10]: 25900 ng·h/mL
